{"source": "patent US20240156800A1", "about": "“EP300 DEGRADER AND USES THEREOF IN NEUROBLASTOMA” (DANA-FARBER CANCER INSTITUTE, INC., priority 2021, published 2024)", "key": {"[1]": {"assay": "Toxicity study in Balb/c Crbn ILE391VAL humanized knockin mice", "assay_type": "in vivo", "protocol": "For toxicity studies, four female CD1 mice (Charles River Laboratories) were injected intraperitoneally (IP) with single doses of 10 mg/Kg (R,S)-JQAD1 solubilized in 10% hydroxypropyl β-cyclodextrin (Sigma-Aldrich®) in sterile water. Following injection, blood concentration of (R,S)-JQAD1 was measured by serial measurements of animal serum at time points out to 24 h, by liquid chromatography with tandem mass spectrometry (LC-MS/MS) analysis. Pharmacokinetics were performed at ChemPartner in Shanghai, China, using LC-MS/MS method and pharmacokinetics parameters (Tmax, Cmax, T1/2, AUC, etc.) calculated with WinNonlin® V 6.2 statistics software (Pharsight Corporation) using a noncompartmental model. For maximally tolerated dose (MTD) testing, six female CD1 mice were treated with daily IP doses of (R,S)-JQAD1 at 10, 20, or 40 mg/kg. Animals were monitored for animal weight, grooming and behavior daily without noted effects. […] Animal weights, behavior and grooming were monitored daily, for a total of 21 days. At day 14, three mice per treatment group were sacrificed and tissues fixed for immunohistochemistry. Blood samples were obtained by retro-orbital puncture and blood analyzed at the Small Animal Imaging Facility at Beth Israel Deaconess Medical Center (Boston, MA), on a Hemavet® 9500FS (Drew Scientific) for blood counts, creatinine, AST, ALT, ALP, GGTP, and BUN measurements."}, "[2]": {"test_system": "Kelly, NGP and BE2C NB cells", "assay": "Propidium iodide DNA flow cytometry (cell cycle, sub-G1)", "assay_type": "cell-based, human", "conditions": "Kelly and NGP cells", "protocol": "Cells were infected with lentiviruses encoding single guide RNAs (sgRNAs) or treated with compounds as described for the noted length of time. Cells were then liberated from adhesion to the plate using a sterile spatula (Coming®) followed by centrifugation, aspiration of media, and resuspension in hypotonic citrate-propidium iodide (PI) solution for 30 minutes at 37° C. (Tate et al. Cytometry 4:211-215 (1983)). Nuclei were stabilized using 5M NaCl prior to analysis on a FACSAria™ II (BD Biosciences). Analysis of cell cycle phases was performed using FlowJo® v10.7 (BD Biosciences)."}, "CBP": {"molecular_target": "T1, CBP (Homo sapiens, UniProt Q92793)", "T1 construct": "Cells growing in culture were lysed for whole cell lysates; endogenous in cells; host or cells: Kelly, NGP, SIMA, BE2C neuroblastoma cells; Kelly xenografts in NSG mice", "T1 sequence (Q92793 whole entry)": "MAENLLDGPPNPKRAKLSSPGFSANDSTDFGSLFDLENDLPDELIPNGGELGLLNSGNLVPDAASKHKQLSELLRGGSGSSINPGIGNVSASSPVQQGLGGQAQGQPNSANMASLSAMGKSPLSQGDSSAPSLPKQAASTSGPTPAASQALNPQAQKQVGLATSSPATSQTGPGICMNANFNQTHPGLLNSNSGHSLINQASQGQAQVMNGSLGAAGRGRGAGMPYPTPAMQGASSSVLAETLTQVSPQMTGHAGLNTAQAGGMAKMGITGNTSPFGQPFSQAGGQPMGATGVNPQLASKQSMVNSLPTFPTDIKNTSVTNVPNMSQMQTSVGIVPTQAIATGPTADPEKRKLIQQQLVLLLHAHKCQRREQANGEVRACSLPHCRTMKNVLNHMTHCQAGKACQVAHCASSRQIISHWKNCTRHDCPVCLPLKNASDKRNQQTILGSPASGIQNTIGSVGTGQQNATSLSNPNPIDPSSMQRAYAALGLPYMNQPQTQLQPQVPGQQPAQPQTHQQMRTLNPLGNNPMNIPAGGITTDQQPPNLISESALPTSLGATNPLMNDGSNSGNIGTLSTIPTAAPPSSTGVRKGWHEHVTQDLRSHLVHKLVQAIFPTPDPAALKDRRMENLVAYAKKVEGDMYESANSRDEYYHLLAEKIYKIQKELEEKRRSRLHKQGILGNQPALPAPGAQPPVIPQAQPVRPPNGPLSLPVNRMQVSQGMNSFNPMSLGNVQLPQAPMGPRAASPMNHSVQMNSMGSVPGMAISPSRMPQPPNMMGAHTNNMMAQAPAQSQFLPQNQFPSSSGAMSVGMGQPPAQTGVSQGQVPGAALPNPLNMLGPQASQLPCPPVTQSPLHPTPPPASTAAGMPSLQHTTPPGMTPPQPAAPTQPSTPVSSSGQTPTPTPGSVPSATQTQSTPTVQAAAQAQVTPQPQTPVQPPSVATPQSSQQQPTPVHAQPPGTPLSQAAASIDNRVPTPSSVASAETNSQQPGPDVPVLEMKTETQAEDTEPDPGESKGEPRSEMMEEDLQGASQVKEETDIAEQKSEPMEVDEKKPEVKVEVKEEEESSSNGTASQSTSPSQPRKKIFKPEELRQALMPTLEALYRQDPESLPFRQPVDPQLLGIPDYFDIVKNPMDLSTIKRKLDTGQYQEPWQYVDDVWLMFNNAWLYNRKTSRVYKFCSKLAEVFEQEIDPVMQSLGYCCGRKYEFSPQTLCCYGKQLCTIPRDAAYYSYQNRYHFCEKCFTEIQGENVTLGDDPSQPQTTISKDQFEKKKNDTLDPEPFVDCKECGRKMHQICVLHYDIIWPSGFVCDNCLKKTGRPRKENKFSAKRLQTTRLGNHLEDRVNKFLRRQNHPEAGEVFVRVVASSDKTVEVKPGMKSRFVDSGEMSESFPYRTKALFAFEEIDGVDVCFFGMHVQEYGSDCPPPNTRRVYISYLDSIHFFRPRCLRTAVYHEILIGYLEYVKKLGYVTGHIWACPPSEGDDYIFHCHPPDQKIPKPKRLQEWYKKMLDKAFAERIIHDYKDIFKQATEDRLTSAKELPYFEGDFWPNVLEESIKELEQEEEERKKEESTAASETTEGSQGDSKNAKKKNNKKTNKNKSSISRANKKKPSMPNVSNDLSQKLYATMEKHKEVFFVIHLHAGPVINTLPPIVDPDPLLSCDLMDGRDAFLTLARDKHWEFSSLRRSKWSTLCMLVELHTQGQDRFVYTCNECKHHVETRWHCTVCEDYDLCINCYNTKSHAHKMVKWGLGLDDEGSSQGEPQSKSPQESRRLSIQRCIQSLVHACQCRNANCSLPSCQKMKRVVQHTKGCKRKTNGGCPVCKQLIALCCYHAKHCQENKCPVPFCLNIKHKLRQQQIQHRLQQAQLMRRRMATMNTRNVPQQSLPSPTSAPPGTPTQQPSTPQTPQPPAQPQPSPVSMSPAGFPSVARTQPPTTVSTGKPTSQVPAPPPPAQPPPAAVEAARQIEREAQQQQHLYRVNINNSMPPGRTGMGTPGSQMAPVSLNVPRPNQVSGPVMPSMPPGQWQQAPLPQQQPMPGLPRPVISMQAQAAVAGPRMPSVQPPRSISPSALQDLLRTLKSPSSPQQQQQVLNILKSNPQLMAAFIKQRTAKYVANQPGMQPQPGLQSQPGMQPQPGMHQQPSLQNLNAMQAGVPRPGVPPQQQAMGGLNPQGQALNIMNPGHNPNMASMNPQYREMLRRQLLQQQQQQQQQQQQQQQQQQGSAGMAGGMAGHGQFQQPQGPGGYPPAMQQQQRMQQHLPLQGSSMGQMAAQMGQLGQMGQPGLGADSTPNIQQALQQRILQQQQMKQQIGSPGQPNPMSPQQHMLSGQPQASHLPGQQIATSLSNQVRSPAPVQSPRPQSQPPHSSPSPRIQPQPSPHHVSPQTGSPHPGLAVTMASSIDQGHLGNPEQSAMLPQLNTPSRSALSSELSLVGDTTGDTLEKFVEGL", "assay": "SILAC mass spectrometry of the nuclear proteome of Kelly cells (CBP)", "assay_type": "cell-based", "conditions": "500 nM, 24 h, nuclear extract", "protocol": "Because JQAD1 interacted preferentially with both EP300 and CRBN, whether JQAD1 preferentially induces degradation of EP300 compared to CBP in MYCN-amplified neuroblastoma cells was examined. […] To further examine the specificity of JQAD1 for EP300, an analysis of the effects of JQAD1 in stable isotope labeling by amino acids in cell culture (SILAC)-labelled Kelly cells was performed (FIG. 3F). Kelly cells were cultured with SILAC media containing heavy or light-labelled arginine and lysine. Heavy labelled cells were treated with 500 nM JQAD1, and light-labelled cells treated with dimethyl sulfoxide (DMSO) for 24 h, prior to nuclear extraction and protein lysis. […] Protein abundance was then analyzed by mass spectrometry, to determine global changes in the nuclear proteome. […] To expand upon these findings, three NB cell lines, Kelly, NGP and SIMA, which have high levels of CRBN (e.g., protein or mRNA) (FIG. 8C), were treated with JQAD, and the effects on specific proteins were measured by western blotting. […] Peptides were detected, isolated, and fragmented to produce a tandem mass spectrum of specific fragment ions for each peptide. Peptide sequences and protein identity were determined by matching protein databases with the acquired fragmentation pattern by Sequest® (Thermo Fisher Scientific) (Eng et al. J. Am. Soc. Mass Spectrom. 5:976-89 (1994)). […]"}, "[3]": {"conditions": "40 mg/Kg IP daily, after 14 days, p NS versus vehicle"}}, "note": "“Also recorded” adds a separate entry of the source."}
{"smiles": "C[C@H](N(Cc1ccc(F)cc1)C(=O)CN1C(=O)O[C@@]2(CCc3cc(NC(=O)CCCCCCCCCCCNc4ccc5c(c4)C(=O)N(C4CCC(=O)NC4=O)C5=O)ccc32)C1=O)C(F)(F)F", "note": "(stereo partly drawn) [JQAD1, 12-((2-(2,6-dioxopiperidin-3-yl)-1,3-dioxoisoindolin-5-yl)amino)-N-((R)-3′-(2-((4-fluorobenzyl)((S)-1,1,1-trifluoropropan-2-yl)amino)-2-oxoethyl)-2′,4′-dioxo-2,3-dihydrospiro[indene-1,5′-oxazolidin]-5-yl)dodecanamide]", "values": [{"measurement": "tolerability", "setting": "[1]; 40 mg/Kg IP daily for 21 days, measurements after 14 days", "result": "well tolerated, with no effects on grooming, behavior, weight, peripheral blood counts, liver function tests or creatinine measurements"}, {"measurement": "tissue pathology (hematoxylin and eosin)", "setting": "[1]; 40 mg/Kg IP daily, 14 days, blinded pathologist", "result": "no gross changes in tissue architecture or immune infiltrate; also recorded: no histologic or biochemical evidence of toxicity in the liver"}, {"measurement": "ALP", "setting": "[1]; [3]", "result": 51}, {"measurement": "ALT", "setting": "[1]; [3]", "result": 54}, {"measurement": "AST", "setting": "[1]; [3]", "result": 37}, {"measurement": "Albumin", "setting": "[1]; [3]", "result": 3.2}, {"measurement": "Basophils", "setting": "[1]; [3]", "result": 0.02, "unit": "K/μL"}, {"measurement": "Creatinine", "setting": "[1]; [3]", "result": 0.17}, {"measurement": "Eosinophils", "setting": "[1]; [3]", "result": 0.10}, {"measurement": "GGTP", "setting": "[1]; [3]", "result": 5}, {"measurement": "Hematocrit", "setting": "[1]; [3]", "result": 41.2, "unit": "%"}, {"measurement": "Hemoglobin", "setting": "[1]; [3]", "result": 13.35}, {"measurement": "Lymphocytes", "setting": "[1]; [3]", "result": 1.80}, {"measurement": "Monocytes", "setting": "[1]; [3]", "result": 0.35, "unit": "K/μL"}, {"measurement": "Neutrophils", "setting": "[1]; [3]", "result": 1.2}, {"measurement": "Platelet", "setting": "[1]; [3]", "result": 528, "unit": "K/μL"}, {"measurement": "WBC", "setting": "[1]; [3]", "result": 3.46, "unit": "K/μL"}, {"measurement": "toxicity (blood counts, liver and kidney function tests, weight, grooming)", "setting": "[1]; twice daily 40 mg/Kg IP for 14 days", "result": "no toxicity was observed"}, {"measurement": "cell cycle / subG1 effect", "setting": "[2]", "result": "induction of a subG1 peak"}, {"measurement": "CBP protein abundance", "setting": "CBP", "result": "remained detectable at similar levels as controls"}]}
